Assay: Intrinsic pH of ceftolozane in solution
Format: physicochemical
Settings: solution (2%)
Description: A formulation close to physiologic pH was targeted. This necessitates an alkalizing agent due to intrinsic pH 1.92 of ceftolozane in solution (2%). The initial study of alkalizing agents included sodium hydroxide, L-arginine, tris, sodium bicarbonate, meglumine, diethanolamine, and triethanolamine. Samples containing 100 mg ceftolozane sulfate, 22.9 mg sodium chloride, 200 mg maltose, and 2 mg citric acid anhydrous were prepared and adjusted to about pH 4. The samples were lyophilized and powders stored at 70° C. for 3 days, 60° C. for 3, 6 and 9 days and at 40° C. for one month. The stored samples were then analyzed for ceftolozane content.

- intrinsic pH of ceftolozane in solution: 1.92
SMILES: Cn1c(N)c(NC(=O)NCCN)c[n+]1CC1=C(C(=O)[O-])N2C(=O)[C@@H](NC(=O)/C(=N\OC(C)(C)C(=O)O)c3nsc(N)n3)[C@H]2SC1 [ceftolozane]
